According to US11911719B2, “Devices and methods for the integrated filtration, drying, and mechanical processing of active pharmaceutical ingredients” (Massachusetts Institute of Technology, priority 2019, dated 2024):
Counter-ions that a name gives are not always drawn.

Key:
[1] = Particle size by laser diffraction (Mastersizer 2000, Scirocco 2000 dry dispersion); format: physicochemical
Protocol: (§1) Particle size analysis by laser diffraction was conducted in a Malvern Mastersizer 2000 using a Scirocco 2000 dry dispersion unit.
Characterization and understanding of the particle and bulk properties of the API, the excipients, and blends were important in the development and manufacturing of pharmaceutical formulations and finished products. Size, shape, bulk density and flow properties of CIPRO, excipients (specifically fillers), and blends were characterized to assist in formulation development. The particle size of CIPRO and excipients were measured in the Scirocco 2000, dry powder dispersion unit of Mastersizer 2000 particle size analyzer (Malvern Instruments Ltd.). CIPRO or excipient was placed in the enclosed vibratory tray of Scirocco 2000. The Scirocco 2000 uses compressed air to transport and suspend the particles of the sample while they pass through the air cell. The vibratory tray of Scirocco 2000 was vibrated to feed the powder at the 50% feed rate setting. The powder was dispersed through the air cell at an air pressure of 2 bar. The Mastersizer 2000 reported volume-weighted particle sizes. The median size of fumed silica CAB-O-SIL® M-5P is about 14 nm.

[2] = Powder compressibility (FT4 Powder Rheometer); format: physicochemical
Protocol: (§2) The bulk density was measured using the conditioned bulk density test, performed before any other test in the FT4. Powder flow property was measured using the shear cell test. The compressibility of the powders under investigation was also measured. Bulk density is an important parameter for determining the amount of powder that can fit in space such as blender, hopper of a tablet press or a tablet die. The shear test yields various powder flow measurements including a flow coefficient. The flow function coefficient (FFC) is used as an indicator of the flowability of a powder and is defined as the ratio of the major principle stress to the unconfined yield strength. The FFC was obtained using a normal stress of 3 kPa. FFC values can be separated into different regimes: FFC<1, not flowing; 1<FFC<2, very cohesive; 2<FFC<4, cohesive; 4<FFC<10, easy flowing, and FFC>10, free-flowing. Powder compressibility was also measured. Compressibility is not a direct measurement of flowability; however a free-flowing powder usually has a low compressibility value. A compressibility value greater than 30% indicates poor powder flow.

[3] = Karl Fischer analysis of lattice water; format: physicochemical; settings: KF analysis of oven dried samples
Protocol: as §1
Furthermore, no significant loss of crystallinity can be observed from the baseline. The lattice water content can be quantified from KF analysis of the off-line oven dried samples collected at different times during the process. […] As expected, the cake contains approximately 19 wt % water at the start of the drying process, coming from the residual wash solvent that contains 20 vol % water (24 wt %), but diluted by the solid API. […] This value is in accordance with the observations from XRPD analysis, with the monohydrate salt of ciprofloxacin HCl having a 4.7 wt % stoichiometric water content. As the drying step progresses, the total water concentration in the cake decreases while the lattice water is maintained constant. With the USP specifications giving a target water content between 4.7 and 6.7 wt %, the obtained drug substance started meeting the specifications after 50 min of drying. This time coincides with the point at which the cake dry matter content was near 100%.

[4] = after 140 min of drying, 50° C., 0.5 bar
[5] = Shear cell test, flow function coefficient (FT4 Powder Rheometer); format: physicochemical
Protocol: as §2

[6] = processed CIPRO particles, Table 3, Hydrochloride Monohydrate
[7] = processed CIPRO particles, Table 3
[8] = Table 2 materials, volume-weighted, dry dispersion 2 bar

Compound: Cl.O.O=C(O)c1cn(C2CC2)c2cc(N3CCNCC3)c(F)cc2c1=O [CIPRO (US & Morter-Pastle), Ciprofloxacin Hydrochloride Monohydrate]
- Particle size d10 [1, 6]: 3.01 μm
- Particle size d50 [1, 6]: 8.67 μm
- Particle size d90 [1, 6]: 24.02 μm
- Compressibility [2, 6]: 43.6%

Compound: O=C(O)c1cn(C2CC2)c2cc(N3CCNCC3)c(F)cc2c1=O [CIPRO (Commercial, un-processed), Ciprofloxacin Hydrochloride Monohydrate]
- Particle size d10 [1, 7]: 3.75 μm
- Particle size d50 [1, 7]: 12.49 μm
- Particle size d90 [1, 7]: 439.56 μm
- Compressibility [2, 7]: 38.9%

Compound: Cl.O.O=C(O)c1cn(C2CC2)c2cc(N3CCNCC3)c(F)cc2c1=O [CIPRO (w/o US, Krups Grinder), Ciprofloxacin Hydrochloride Monohydrate]
- Particle size d10 [1, 6]: 1.23 μm
- Particle size d50 [1, 6]: 3.88 μm
- Particle size d90 [1, 6]: 33.26 μm
- Compressibility [2, 6]: 52.6%
- Compressibility ([2]; processed CIPRO particles, Table 3, listed as CIPRO (w/o use of a Krups Grinder), Hydrochloride Monohydrate): 52.6%

Compound: O=C(O)c1cn(C2CC2)c2cc(N3CCNCC3)c(F)cc2c1=O [Ciprofloxacin HCl (CIPRO), Ciprofloxacin Hydrochloride Monohydrate]
- Lattice water content of the crystalline phase [3]: 6.2 wt %
- Crystal structure after drying (XRPD) [4]: retained the original crystal structure

Compound: Cl.O.O=C(O)c1cn(C2CC2)c2cc(N3CCNCC3)c(F)cc2c1=O [CIPRO (w/o US, Grinder designed at MIT), Ciprofloxacin Hydrochloride Monohydrate]
- Particle size d10 [1, 6]: 2.82 μm
- Particle size d50 [1, 6]: 14.45 μm
- Particle size d90 [1, 6]: 169.73 μm

Compound: Cl.O.O=C(O)c1cn(C2CC2)c2cc(N3CCNCC3)c(F)cc2c1=O [CIPRO (US & Krups Grinder), Ciprofloxacin Hydrochloride Monohydrate]
- Particle size d10 [1, 6]: 1.93 μm
- Particle size d50 [1, 6]: 7.09 μm
- Particle size d90 [1, 6]: 65.36 μm
- Compressibility [2, 6]: 38.8%

Compound: Magnesium stearate
- Particle size d10 [1, 8]: 2.76 μm
- Particle size d50 [1, 8]: 6.86 μm
- Particle size d90 [1, 8]: 15.10 μm
- Compressibility ([2]; Table 2 materials): 38.97%
- FFC (Flow function coefficient) ([5]; Table 2 materials, normal stress of 3 kPa): 5.18
- Flowability by Schulze classification ([5]; based on FFC): flows easily
